Drawing on a melting point compilation (Tetko et al.; mined from patent text by program, amines drawn as free bases though some values may be those of a salt), this text covers melting point for 61 molecules.

Turning to `CCCCCCCCOC(=S)c1cc(C(C)(C)C)c(OC(=O)c2cc(C(C)(C)C)c(O)c(C(C)(C)C)c2)c(C(C)(C)C)c1`, the melting point – broadly, the temperature, or range, at which the solid turns liquid – lay in the range of 129 to 132 °C.

`O=S1(=O)c2cccc3cccc(c23)N1CCCN1CCN(c2ccc(F)cc2)CC1`: the melting point was in the range of 95 to 97 °C.

`CC1(C)CCC(C)(C)c2cc(C(=O)c3ccc(C(=O)O)cc3)c(OCc3ccccc3)cc21`: the melting point lay in the range of 212 to 213 °C.

`C=C(Br)n1ccnc1[N+](=O)[O-]` showed a melting point of 80 to 82 °C.

`O=C1C(=O)c2ccc(-c3ccccc3C(F)(F)F)cc2C2=C1SCC1(CCNCC1)O2` registered a melting point of 125 to 127 °C.

With `CCN(C(=O)n1nnc2cc(Cl)c(Cl)cc21)c1ccccc1`, the melting point is 120 °C.

For the molecule `O=c1cc(C=Cc2ccccc2)oc2ccc(O)cc12`, the melting point stood at 230 °C.

In turn, `c1ccc(CN2CC3(COc4cc5c(cc43)CCO5)c3c(-c4cncnc4)cccc32)nc1` (stereo unspecified) came in with a melting point greater than 200 °C.

Regarding `CCOC(=O)C1=C(C(=O)OCC)C(c2cc(OC)c(OC)c(OC)c2)C(C(=O)OCC)=C(C)N1` (stereo unspecified), the melting point came out at 134 °C.

As for `CCCCc1cn(CC(C)C)c(=O)n1Cc1ccc(-c2ccccc2-c2nnn[nH]2)nc1`, the melting point was in the range of 160 to 162 °C.

`Cc1ccc(C(=O)NC(NC(=S)Nc2cccc(C)c2)C(F)(F)F)cc1` (stereo unspecified) showed a melting point of 197 to 198 °C.

For the molecule `CCOC(=O)c1c(CC(C)C)nc2c(C(F)(F)F)cccc2c1O`, the melting point was determined as 100 °C.

Take `CCn1c(C)c(C)cc(C(=O)O)c1=O`: the melting point is 164 to 165 °C.

`O=C1c2cccc3cc4ccccc4c(c23)C(=O)N1CCCNCCN1C(=O)c2cccc3cc4ccccc4c(c23)C1=O`: the melting point worked out at 260 °C.

As to `CC(=O)c1ccc2c(c1)C=CC(=O)CO2`, the melting point was 92 to 93 °C.

Regarding `C=CCN(CC=C)Cc1noc(-c2ncn3c2[C@@H]2CCN2C(=O)c2ccccc2-3)n1`, the melting point is 147 to 150 °C.

`CCOC(=O)c1cn(C2CC2)c2c(F)c(F)c(F)c(C)c2c1=O`: the melting point was in the range of 176 to 177 °C.

`c1cc2c3c(nnc4c3c1OCC4)CCO2` gave a melting point of 249 °C.

The molecule `O=C(O)C(=O)CC(=O)c1ccc(OCc2ccccc2)cc1OCc1ccccc1` showed a melting point of 160 to 164 °C.

The molecule `CC(=NNC(=N)N)c1sc(-c2ccccc2)nc1C` registered a melting point of 195 to 196 °C.

Turning to `Cn1ncc2[nH]c3cccc(F)c3c(=O)c21`, the melting point is greater than 300 °C.

In turn, `O=C(Nc1ccc(Oc2ccccc2)cc1)N1CCN(c2cc(C(F)(F)F)nc3ccccc23)CC1` displayed a melting point of 203 to 204 °C.

With `CC(C)n1cc(-c2ccc(C=O)cc2)c2c(N)ncnc21`, the melting point fell in the range of 198 to 200 °C.

Molecule `CC(=O)N1CCC(C2=C(C#N)C(c3cccc(C#N)c3Br)c3c[nH]nc3N2)CC1` (stereo unspecified) returned a melting point greater than 280 °C.

On to `CCN1C(=O)C(C)(C)C(=O)N(C)c2cc(CN(CCc3cccnc3)S(=O)(=O)c3ccccc3)ccc21`, for which the melting point was in the range of 143 to 146 °C.

Molecule `CCCN1CCN(c2cc(-c3ccc(F)cc3F)c3c(n2)CCCCCC3)CC1` registered a melting point of 108 to 109 °C.

`O=C(C=Cc1ccccc1)NNC(=O)c1ccc(O)cc1`: the melting point lay in the range of 263 to 264 °C.

`Cc1sc(N)c(C(=O)c2cccc(C(F)(F)F)c2)c1C` showed a melting point of 103 to 105 °C.

On to `COc1ccc(CCC(=O)c2cccc(O)c2)cc1OC`, for which the melting point lay in the range of 132 to 134 °C.

Take `CC#CCCn1ncc2c(NC(=O)CC)c3c(nc21)CN(CCC)C3=O`: the melting point was in the range of 130 to 132 °C.

`COc1cc2c(cc1OC)-c1c(OC)c(OC)cc3c1C(C2)N(C)CC3O` (single isomer, unassigned; (+)) came in with a melting point of 180 to 182 °C.

For the molecule `CCCNCCCOc1ccc(-c2ccc(C(=O)O)cc2)cc1-c1ccc2c(c1)C(C)(C)CCC2(C)C`, the melting point turned out to be 226 °C.

`CC(O)c1cn(C(c2ccccc2)(c2ccccc2)c2ccccc2)cn1` (stereo unspecified) gave a melting point of 156 to 157 °C.

`Cc1c(Sc2ccc(Cl)cc2)nn(-c2ccc(O)cc2)c(=O)c1C#N` registered a melting point of 261 to 263 °C.

As to `CCOC(=O)N1CCN(c2cc3nc(C(C)(C)C)sc3cc2N=C=S)CC1`, the melting point lay in the range of 131 to 134 °C.

For `O=S1(=O)N=CN(C2CCCCCC2)c2cc(Cl)c(Cl)cc21`, the melting point lay within 222 to 224 °C.

In the case of `COc1ccc(-c2ccc(OC3SCC(OC(C)=O)C(OC(C)=O)C3OC(C)=O)cn2)cc1` (stereo unspecified), the melting point came to 208 °C.

`COc1cccc(CCC(C(=O)c2ccc(O)cc2)c2ccccc2)c1` (stereo unspecified) gave a melting point of 125 to 129 °C.

For the molecule `O=C1OC(OC(=O)c2cccnc2Cl)c2ccccc21` (stereo unspecified), the melting point was in the range of 137 to 138 °C.

`CC[C@H](C)[C@@H](CO)NC(=O)[C@H](Cc1c[nH]cn1)NC(=O)[C@H](Cc1cccc2ccccc12)NC(=O)OCc1ccccc1` displayed a melting point of 197 to 199 °C.

`COC(=O)c1ccc(OCC(=O)c2cc3cc(C(C)C)ccc3o2)cc1` displayed a melting point of 95 to 97 °C.

`Cn1c(=O)c(Oc2c(F)cccc2F)cc2cnc(S(C)(=O)=O)nc21` displayed a melting point of 215 to 216 °C.

In turn, `C=CCc1c(O)cc(OC)cc1C(=O)O` displayed a melting point of 120 to 122 °C.

In turn, `O=C(Cl)C(=O)c1cn(Cc2ccc(Cl)cc2)c2ccccc12` had a melting point of 151 to 153 °C.

`CC1CN(c2ccc(C(N)=O)cc2)CCN1Cc1cn2cc(Cl)ccc2n1` (racemic) registered a melting point of 202 to 204 °C.

Molecule `CN(C)C=Cc1ccc([N+](=O)[O-])c2[nH]ncc12` had a melting point of 255 °C.

For `COc1ccc2c(c1OC)Oc1cccc3cncc-2c13`, the melting point is 195 to 196 °C.

With `CC(=O)N1CC(=O)Nc2ccccc21`, the melting point was 164 to 165 °C.

Regarding `CCC([O-])=C(C(=O)OC)N1C(=O)CC1[N+](CC)(CC)CC` (stereo unspecified), the melting point lay within 109 to 110 °C.

`COc1ccc2oc(C(=O)O)c(OC)c2c1` displayed a melting point of 168 °C.

Molecule `CC1(C)C(=O)N(c2ccc(C#N)c(C(F)(F)F)c2)C(=S)N1CCF` displayed a melting point of 135 °C.

In turn, `Cn1cccc1C1=C(c2cn(C)c3ccccc23)C(=O)NC1=O` had a melting point of 248 to 250 °C.

With `CCCCCCC(C(=O)O)n1ccc2cc(-c3cccc(OC)c3C(=O)O)ccc21` (stereo unspecified), the melting point was 80 to 90 °C.

`CC(C)(C)c1ocnc1C=C(O)C(=O)O`: the melting point was 153 to 155 °C.

With `CCOC(=O)C[C@H]1O[C@H](c2ccc(OCc3ccccc3)cc2OC)c2cc(Cl)ccc2N(CC(C)(C)C)C1=O` (relative stereo), the melting point was 130 to 131 °C.

With `COc1ccc(Br)c(C(=NNS(=O)(=O)c2ccccc2)N2CCN(C)CC2)c1`, the melting point lay within 141 to 145 °C.

Consider `COc1cc(C(=O)N2Cc3ccc(C(=O)NCc4ccccc4C(F)(F)F)n3Cc3ccccc32)ccc1-c1ccccc1C`, for which the melting point was in the range of 165 to 167 °C.

In the case of `CCCCC[C@H]1CC[C@H](COc2ccc(C(=O)C(F)(F)F)cc2)CC1`, the melting point was 60 °C.

`OCCc1ccc2cc(Br)ccc2n1` yielded a melting point of 103 to 104 °C.

For `CC(=O)c1cc(S(=O)(=O)N(C)C)c(Cl)cc1Cl`, the melting point fell in the range of 98 to 100 °C.

In turn, `CCC/C=C/[C@H]1CC[C@H](c2ccc(C(C)=O)cc2)CC1` registered a melting point of 51.2 °C.
